{"source": "patent US20060135611A1", "about": "“Use of 2,5-dihydroxybenzenesulfonic compounds for the treatment of disorders based on an impairment of no production and/or of regulation of edhf function” (priority 2002, published 2006)", "key": {"[1]": {"tested_on": "human penile resistance arteries (HPRA)", "assay": "Vascular reactivity of resistance penile arteries (myograph, norepinephrine-contracted)", "protocol": "Penile small arteries, helicine arteries (lumen diameter 150-400 μm), which are the terminal branches of deep penile arteries, were dissected by carefully removing the adhering trabecular tissue, and arterial ring segments (of 2 mm length) were subsequently mounted on two 40 μm wires on microvascular double Halpern-Mulvany myographs (J.P. Trading, Aarhus, Denmark) for isometric tension recordings. The vascular segments were allowed to equilibrate for 30 min in physiological salt solution (PSS) of the following composition (each given in mM): 119 NaCl, 4.6 KCl; 1.5 CaCl2, 1.2 MgCl2, 24.9 NaHCO3, 11 Glucose, 1, 2 KH2PO4, 0.027 EDTA in water at 37° C., continuously bubbled with a 95% O2/5% CO2 mixture to maintain a pH of 7.4. Passive tension and internal circumference of the vascular segments when relaxed in situ under a transmural pressure of […] (L100) were determined. The vascular segments were then set to an internal circumference eqivalent to 90% of L100, at which the force development was close to maximal as described in Mulvany MJ, Halpern W., “Contractile properties of small resistance arteries in spontaneously hypertensive and normotensive rats”, Circ. Res., 41, 19-26, 1977. The respective literature description is incorporated by reference and is part of the disclosure.\nThe preparations were then exposed to 125 mM K^+(KPSS, equimolar substitution of […] in PSS) and the contractile response was measured. The arteries were contracted with 1 μm norepinephrine (approximately 80% of KPSS induced contraction) and relaxation responses were evaluated by cumulative additions of compounds to the chambers.\nRelaxation responses are expressed as percentage of total relaxation (loss in tone) induced by the addition of 0.1 mM papaverine HCl to the chambers at the end of the experiment. All data are expressed as mean ± standard error. Complete concentration-response or frequency-response curves were obtained and compared by a two-factor analysis of variance (ANOVA) statistical test using StatView sotfware tor Apple computers. Erectile responses were determined by measuring the area under the curve (AUC) of the intracavemosal pressure increases to rat cavemosal nerve stimulation normalized by mean arterial pressure values. The complete frequency-response curves were compared by a two-factor ANOVA test."}, "[2]": {"tested_on": "Male genetically diabetic rats (BB/wor rats)", "assay": "Erectile responses to cavernosal nerve stimulation in anesthetized diabetic rats", "format": "in vivo, rat", "details": "10 mg/kg intravenous; 60 min after administration; 1, 3 and 10 Hz", "protocol": "Male genetically diabetic rats (BB/wor rats, Mölegaard Breeding and Research, Svensved, Denmark) were anesthetized with ketamine (60 mg/kg). The surgical procedure consisted of dissection and isolation of the right cavernous nerve through an abdominal midline incision and exposure of penile crura through a transverse perineal incision. Intracavemosal pressure (ICP) measurements were accomplished by insertion into the right crus of a 23-gauge needle connected to a disposable pressure transducer (Abbott, Sligo, Ireland) and a data acquisition system (ADInstruments, Castle Hill, Australia). Left carotid artery and right external jugular vein were catheterized for constant blood pressure measurement and saline or drug infusion, respectively. Electrical stimulation was applied by a delicate platinum bipolar hook electrode connected to a stimulator and current amplifier (Cibertec, Madrid, Spain). […]\nRelaxation responses are expressed as percentage of total relaxation (loss in tone) induced by the addition of 0.1 mM papaverine HCl to the chambers at the end of the experiment. All data are expressed as mean ± standard error. […] Erectile responses were determined by measuring the area under the curve (AUC) of the intracavemosal pressure increases to rat cavemosal nerve stimulation normalized by mean arterial pressure values. […]"}}}
{"smiles": "O=S(=O)(O)c1cc(O)ccc1O", "note": "[Calcium dobesilate, calcium 2,5-dihydroxybenzenesulfonate]", "values": [{"measurement": "potentiating effects on ACh-induced relaxation of HPRA with APA and CTX", "setting": "[1]; APA 100 nM + CTX 100 nM, NOS and COX inhibition", "value": "abolished the potentiating effects"}, {"measurement": "effect on ACh-induced relaxation of HPRA", "setting": "[1]; calcium dobesilate 10 μM", "value": "markedly potentiated"}, {"measurement": "potentiation of ACh-induced relaxation of HPRA under combined inhibition of NOS and COX", "setting": "[1]; calcium dobesilate 10 μM, NOS and COX inhibition", "value": "not significantly affected"}, {"measurement": "potentiation of ACh-induced relaxation of HPRA at high potassium concentration", "setting": "[1]; calcium dobesilate 10 μM, high potassium 35 mM", "value": "abolished"}, {"measurement": "potentiating effects on ACh-induced relaxation of HPRA resistant to NOS and COX inhibition, with miconazole", "setting": "[1]; miconazole 0.3 mM", "value": "significantly reduced the potentiating effects"}, {"measurement": "erectile responses to cavernosal nerve stimulation (AUC of ICP increase normalized by mean arterial pressure)", "setting": "[2]", "value": "significantly enhanced"}]}
